Experimental data as given in US20230330089A1, “COVID PREVENTION AND TREATMENT USING AN INTEGRIN INHIBITOR” (priority 2022, published 2023).

Test system: SARS-CoV-2 pseudovirus variants
Type: cell-based

| Compound | inhibition of D614G pseudovirus infection, single agent vs positive control | inhibition of Beta and Delta variant pseudovirus infection | inhibition of D614G pseudovirus infection | inhibition of D614G, Delta and Omicron pseudovirus infection | inhibition of Omicron and Delta pseudovirus infection compared with other variants | inhibition of infection by D614, D614G, N501Y, E484K, N+E, NEK, R685A pseudovirus variants |
| --- | --- | --- | --- | --- | --- | --- |
| CNS(=O)(=O)Nc1nccc(Cc2c(C)c3ccc(Oc4ncccn4)cc3oc2=O)c1F [VS-6766] | inhibited pseudovirus infection |  |  |  |  |  |
| COc1ccc(S(=O)(=O)N[C@@H](CNc2nc(C)nc(N3CCC(c4ccc5c(n4)NCCC5)CC3)c2C)C(=O)O)cc1 [GLPG-0187] | inhibited pseudovirus infection | most significant decrease in pseudovirus infection by the Delta variant | inhibited pseudovirus infection in a dose-dependent manner | effectively blocked | more significantly than other variants | inhibition of viral infection of each variant |
